Measurements reported in patent US20250242030A1, “COMPOSITIONS COMPRISING A NON-BIOABSORBABLE POLYMER AND METABOLIC INHIBITOR” (Board of Trustees of Michigan State University, priority 2022, published 2025).

Legend:
Type in all cases: cell-based, mouse
BMDMs [1] = test: Cytokine and chemokine multiplex assay in BMDM supernatants
From the text: (§1) BMDMs derived from C57BL/6J mice (Jackson Laboratories) of 3-4 months were used. Mouse embryonic fibroblasts (NIH 3T3 cells, hereafter “MEFs”) were stably transfected with a Sleeping Beauty transposon plasmid (pLuBIG) having a bidirectional promoter driving an improved firefly luciferase gene (fLuc) and a fusion gene encoding a Blasticidin-resistance marker (BsdR) linked to eGFP (BGL). For temporal (IVIS) experiments lasting 12 days, 5,000 BGL cells were initially seeded in each well of a 96-well tissue culture plate in 200 μL if complete medium. For ATP, crystal violate, and Seahorse assays, 20,000 wild-type MEFs were seeded. For ATP, crystal violate, and cytokine/chemokine assays, 50,000 BMDMs were seeded. 60,000 BMDMs were seeded for the Seahorse assays. For IVIS experiments with glycolytic inhibitors, 20,000 BGL cells were initially seeded. Complete medium comprised DMEM medium, 10% heat inactivated fetal bovine serum (FBS), and 100 U/mL penicillin/streptomycin (all from ThermoFisher Scientific).
Cytokine and chemokine levels were measured using a MILLIPLEX MAP mouse magnetic bead multiplex kit (MilliporeSigma) to assess for IL-6, MCP-1, TNF-α, IL-1β, IL-4, IL-10, IFN-γ, and 1L-13 protein expression in supernatants. Data was acquired using Luminex 200 (Luminex Corporation) by the xPONENT software (Version 3.1, Luminex Corporation). […] Values exceeding the dynamic range of the assay, in accordance with manufacturer's instruction, were excluded. Additionally, IL-6 ELISA kits (RayBiotech) for supernatants were used according to manufacturer's instructions.

BMDMs [2] = test: Crystal violet cell viability assay in BMDMs; conditions: BMDMs treated with metabolic inhibitors; data not shown
From the text: as §1
(§2) Cell viability was measured using the crystal violet staining assay at room temperature. 50 μL media containing cells is incubated with 150 μL of 99.9% methanol for 15 minutes. […] Absorbance (optical density) was acquired at 570 nm using the SpectraMax M3 Spectrophotometer (Molecular Devices) and SoftMax Pro software (ver. 7.0.2).

MEFs [3] = test: Crystal violet cell viability assay in MEFs; conditions: MEFs treated with metabolic inhibitors; data not shown
From the text: as §1, §2

macrophages [4] = test: TMRM staining for mitochondrial membrane potential; conditions: metformin added to exposed cells
BMDMs [5] = test: Bioenergetic (ATP) levels in BMDMs; conditions: PE-exposed BMDMs with inhibitor of mitochondrial respiration
Protocol: (§3) Bioluminescence was measured using an IVIS Spectrum in vivo imaging system (PerkinElmer) after addition of 150 μg/mL of D-luciferin (PerkinElmer). Living Image (Version 4.5.2, PerkinElmer) was used for acquiring bioluminescence on the IVIS Spectrum. Standard ATP/ADP kits (Sigma-Aldrich) containing D-luciferin, luciferase, and cell lysis buffer were used according to manufacturer's instructions. Luminescence at integration time of 1,000 ms was obtained using the SpectraMax M3 Spectrophotometer (Molecular Devices) and SoftMax Pro software (ver. 7.0.2).
as §1
(§4) Preparation of ultra-high molecular weight polyethylene particles are described in Example 1 above. The bioenergetics measurements, Seahorse assay, crystal violet assay, and cytokine and chemokine assays were conducted as described in Example 1. Inhibitors rotenone, metformin, oligomycin, and antimycin A were obtained from MilliporeSigma. The reagents were reconstituted in complete medium (described above).

BMDMs [6] = test: Seahorse assay (ECAR, PER, OCR) in BMDMs; conditions: PE-exposed BMDMs in presence of inhibitor
From the text: as §1
To determine the metabolic pathways responsible for the observed bioenergetic changes, Seahorse assays were used to measure oxygen consumption rate (OCR), extracellular acidification rate (ECAR) and lactate-linked proton efflux rate (PER) in a customized medium (pH 7.4). Basal measurements of OCR, ECAR, and PER were obtained in real time using the Seahorse XFe-96 Extracellular Flux Analyzer (Agilent Technologies). Prior to running the assay, cell culture medium was washed with and replaced by the Seahorse XF DMEM medium (pH 7.4) supplemented with 25 mM D-glucose and 4 mM glutamine. The Seahorse plates were equilibrated in a non-CO2 incubator for an hour prior to the assay. The Seahorse ATP rate and cell energy phenotype assays were run according to manufacturer's instruction and all reagents for the Seahorse assays were sourced from Agilent Technologies. Wave software (Version 2.6.1) was used to export Seahorse data directly as means±standard deviation (SD).
Seahorse assays measures ECAR as an index of glycolytic flux, OCR as an index of oxidative phosphorylation and PER as an index of monocarboxylate transporter function in live cells, and are used to assess for metabolic reprogramming. […] (FIGS. 3a-c)
as §4

MEFs [7] = test: Total ATP levels in lysed MEFs (ATP/ADP kit); conditions: PE-exposed MEFs with inhibitor of mitochondrial respiration
Protocol: as §3, §1

macrophages [8] = test: mitoSOX Red staining for mitochondrial ROS; conditions: added to PE-exposed macrophages, compared to macrophages exposed to only PE
From the text: To test whether increased OCR at complex I (FIG. 8c) fueled ROS production in the mitochondrion, macrophages were stained with mitoSOX Red. Exposure to LPS or PE particles increased mitochondrial reactive oxygen species (ROS) relative to untreated macrophages. Addition of metformin decreased mitochondrial ROS compared to macrophages exposed to only PE. Mitochondrial membrane potential is critical for reverse electron transport (RET) at complex I, and subsequent generation of mitochondrial ROS.

[9] = 1 mM inhibitor, BMDMs exposed to ultra-high molecular weight PE particles
[10] = metformin, BMDMs treated with PE

Row | Compound | IL-4 (BMDMs [1]; [9]) | expression of IL-1β (BMDMs [1]; [9]) | expression of IL-6 (BMDMs [1]; [9]) | expression of MCP-1 (BMDMs [1]; [9]) | expression of TNF-α (BMDMs [1]; [9]) | cell viability (BMDMs [2]) | cell viability (MEFs [3]) | ATP levels in PE-exposed cells (BMDMs [5]) | ECAR (BMDMs [6]) | OCR (BMDMs [6]) | PER (BMDMs [6]) | ATP levels in PE-exposed cells (MEFs [7]) | other results
1 | O=CC[C@@H](O)[C@H](O)[C@H](O)CO [2DG, 2-deoxyglucose] | increased | decreased | decreased | decreased | decreased | did not lower | did not lower |  |  |  |  |  | 
2 | O=C(C=Cc1cccnc1)c1ccncc1 [3PO, 3-(3-pyridinyl)-1-(4-pyridinyl)-2-propen-1-one] | increased | decreased | decreased | decreased | decreased | did not lower | did not lower |  |  |  |  |  | 
3 | NOCC(=O)O [aminooxyacetic acid] | increased | decreased | decreased | decreased | decreased |  |  |  |  |  |  |  | IL-10 levels (BMDMs [1]; [9]): increased
4 | CN(C)C(=N)N=C(N)N [metformin] |  |  |  |  |  |  |  | did not impact | reduced | reduced | reduced | did not impact | IL-1β (BMDMs [1]; [10]): decreases; IL-4 (BMDMs [1]; [10]): did not increase; IL-6 (BMDMs [1]; [10]): decreases; IL-10 (BMDMs [1]; [10]): did not increase; MCP-1 (BMDMs [1]; [10]): decreases; TNF-α expression (BMDMs [1]; [10]): not mitigated; elevated mitochondrial membrane potential (macrophages [4]): decreases; mitochondrial ROS (macrophages [8]): decreased
5 | CC[C@H]1/C=C/C=C/C[C@@H](C)[C@H](O)[C@@](C)(O)C(=O)[C@@H](C)[C@H](O)[C@@H](C)C(=O)[C@@H](C)[C@H](O)[C@@H](C)/C=C/C(=O)O[C@@H]2[C@H](C)[C@H](CC1)O[C@]1(CC[C@H](C)[C@H](C[C@@H](C)O)O1)[C@H]2C [oligomycin] |  |  |  |  |  |  |  | did not impact |  | affected |  | did not impact | 
6 | C=C(C)[C@H]1Cc2c(ccc3c2O[C@@H]2COc4cc(OC)c(OC)cc4[C@@H]2C3=O)O1 [rotenone] |  |  |  |  |  |  |  | did not impact | did not impact | decrease | did not impact | did not impact | 
